This is an account of results in patent publication US20150174144A1, “TETRACYCLINE COMPOUNDS FOR TREATING NEURODEGENERATIVE DISORDERS” (PARATEK PHARMACEUTICALS, INC., priority 2012, published 2015).

For one data set, the system named is MOG peptide-induced EAE. The data set is described as follows: MOG peptide-induced EAE in mice. Format: in vivo, C57BL/6 mouse. The settings on record: mouse, i.p. daily from day 10. The text has this: The inhibitory activity of Compound 1 was characterized in both mouse and rat models of EAE. Mice were immunized s.c. with myelin oligodendrocyte glycoprotein (MOG) peptide 35-55 in CFA and later injected i.v. with Pertussis toxin. Mice were randomized at day 10 and given compound i.p. Compounds were subsequently administered daily and the animals assessed for clinical score. Mice were scored as follows: 0=no disease; 1=limp tail; 2=paralysis of one or both hind limbs; 4=paralysis of both hind- and forelimbs. […] Rats were dosed daily i.p. with compound starting day 9. Rats were scored daily and cumulative scores were determined by adding the average daily scores over the experimental period. […] The average daily scores+/−SEM and the cumulative average scores are shown. Cumulative average scores were determined by adding the average daily scores over the experimental period.

Data set [1] in a line: Peroxynitrite-carbonate radical scavenging assay (DHR probe). As for the experimental part: Inflammatory conditions are characterized by increasing concentrations of reactive oxygen species. In this study, the ability of Compound 1 to specifically scavenge peroxynitrite-carbonate radicals was determined.
To the first column of a 96-well PCR plate (0.2 mL volume) was added 160 μL of TCWS. One well of the first column would equal one IC50 determination. Typically, test compounds were assayed in duplicate, i.e. two wells of column 1 were filled with each TCWS. To the remaining wells in columns 2-11 was added 80 μL of DWS. Using a multichannel pipettor, column 1 was serially diluted in 2-fold dilutions by removing 80 μL from column 1 and transferring with mixing to column 2. Column 2 was then diluted to column 3 and so on until column 11 where 80 μL of the diluted mixture was removed and discarded. At least 2 wells of row 12 were designated as the 0 test compound control to which 80 μL of DWS was added. One well of row 12 per test compound was designated as the background control to which 80 μL of the TCWS was added.
The plate was covered and incubated for 5 minutes at 37° C. upon which the reaction was initiated by addition of 20 μL of Sin-1 to columns 1-11 using a multichannel pipettor with mixing. The reaction was initiated similarly to the 0 test compound wells of column 12. To the background control wells was added 20 μL of PC buffer. The plate was incubated at 37° C. for 8 minutes (the reaction is linear for 10 minutes) and quenched by addition of 50 μL of AA to all wells with mixing. The plate was placed on ice for 5 minutes. Quenched assay mixtures were stable at room temperature for at least 24 hours.
Each reaction mixture (20 μL) was analyzed for rhodamine 123 product by HPLC using a Phenomenex Luna C18(2) column, 3 um, 4.6×50 mm using an A buffer of water+0.1% TFA and a B buffer of acetonitrile+0.1% TFA and the following gradient method: […]
The absorbance at 280 nm was also recorded to ensure no co-elution of test compound peaks.
Initial examination of the background control samples at the highest test compound concentration were performed to ensure no co-elution of test compound peaks with the product rhodamine 123 at 4 minutes. If co-elution was observed, the compound was not tested until an appropriate HPLC method was developed to separate the product and test compound peaks. The rhodamine 123 AUC was then determined for each test compound concentration and the percent inhibition of rhodamine 123 fluorescence was then determined by the following equation:
% Inhibition=[(AUCo−AUCx)/AUCo]*100
Where AUCo is the AUC of the rhodamine 123 peak at 0 test compound concentration and AUCX is the AUC of the rhodamine 123 peak at each test compound concentration=x.
The standard error of the curve fit for the IC50 was also determined along with the Hill slope. The IC50 determined for uric acid was divided by the IC50 determined for each test compound to generate Uric Acid Equivalents, a measure of the peroxynitrite-carbonate radical scavenging ability relative to uric acid.
Uric Acid Equivalents=[…]

A short description of a further data set: Metabolism. Format: in vitro ADME. The settings on record: pre-clinical ADME studies.
Data set [2] has as its system focal cerebral ischemia (permanent MCA occlusion). The data set is described as follows: Rat stroke model, permanent MCA occlusion. The class given is in vivo, Male Wistar rats.
Data set [3] has as its system hippocampal neurons from Fmr1 KO mice. Kind of data set: Dendritic spine development in hippocampal primary cultures. Format: cell-based, mouse. The settings on record: FX hippocampal primary cultures, 20 μM, 17 hour treatment, 18 DIV. As to the method:
The purpose of this study was to investigate the direct effects of tetracycline compounds, such as minocycline and Compound 1, on dendritic spine development in the cell derived from the mouse model of Fragile X Syndrome (FXS) and their wild-type litter mate control mouse embryos.
The compartmentalized cell culture was used in the experiments. Neuronal primary cultures of the hippocampus at embryonic day 16 (E16) were prepared from Fmr1 KO and WT litter mate control mouse embryos, and three independent cultures were used for the analysis. The in vitro system with […] was used to monitor dendritic spine morphogenesis during a time-course of culture, and immunostaining with synaptophysin was used to distinguish presynaptic boutons. The dendritic spines were usually formed between 7 and 14 days in vitro (DIV). By 14 DIV most dendiritic protrusions were spines; however, their maturation continued until 21 DIV. The effects of tetracycline compounds were evaluated at 18 DIV. Confocal Imagining analysis was performed at the University of Chile imaging center. Quantitative analysis of dentritic spine length, size distribution for dendritic spine heads and morphology of the hippocampal neurons from WT control and Fmr1 KO mice was performed after 17 hour treatment with 20 μM tetracycline compounds or with PBS control.

What is called IC50 is the midpoint of a concentration-inhibition curve.

On to `CCc1cc(N(C)C)c2c(c1O)C(=O)C1=C(O)[C@]3(O)C(=O)C(C(N)=O)=C(O)[C@@H](N(C)C)[C@@H]3C[C@@H]1C2` [Compound 1], for which, in the data set on MOG peptide-induced EAE, the “Effect on clinical course of EAE (onset, maximum disease severity)” value was “both delayed the onset and inhibited the maximum disease severity more potently than minocycline”. Further, the IC50 in data set [1] (Sin-1, 37° C., 8 minutes, read-out: IC50, inhibition of oxidation of DHR probe (peroxynitrite-carbonate scavenging)) was 11 µM. Moreover, in data set [1] (relative to uric acid), the “Uric Acid Equivalents” value was determined as 1.13. Besides, the Effects in metabolism result in “Metabolism” was “no significant effects”. The same compound yielded a Neurological score in data set [2] (40 mg/kg i.v. at −90 min, 90 min, 6 hr after MCAO, permanent) of 1.1 ± 0.3. The “Infarct volume (Means ± SD)” value in data set [2] (40 mg/kg i.v. at −90 min, 90 min, 6 hr after MCAO, permanent, 24 hr after MCAO) amounted to 145.7 ± 33.9 mm3. Besides, the “Effect on infarct volume” value in data set [2] (permanent occlusion, treatment started at 90 min pre-occlusion) is on record as “statistically significant reductions in infarct volume”. For the same compound, the Spine number in data set [3] is listed as 0.28±0.05.
